Key:
Assay in all cases: 11×7 synergism hit rate
Format in all cases: cell-based
7860 = settings: Renal Cancer 7860, combination with SR16388
Text: (§1) SR16388 was synthesized in house.
(§2) Within the same type of cancer cells, some cell lines have more synergistic hits than others. Melanoma and breast cancer cell lines had the highest hit rate.

ACHN = settings: Renal Cancer ACHN, combination with SR16388
Text: as §1, §2

CAKI1 = settings: Renal Cancer CAKI1, combination with SR16388
Text: as §1, §2

CCRFCEM = settings: Leukemia CCRFCEM, combination with SR16388
Text: as §1, §2

COLO205 = settings: Colon Cancer COLO205, combination with SR16388
Text: as §1, §2

DU145 = settings: Prostate Cancer DU145, combination with SR16388
Text: as §1, §2

HCT116 = settings: Colon Cancer HCT116, combination with SR16388
Text: as §1, §2

HCT15 = settings: Colon Cancer HCT15, combination with SR16388
Text: as §1, §2

HL60 = settings: Leukemia HL60, combination with SR16388
Text: as §1, §2

HOP62 = settings: NSCLC HOP62, combination with SR16388
Text: as §1, §2

HOP92 = settings: NSCLC HOP92, combination with SR16388
Text: as §1, §2

HS578T = settings: Breast Cancer HS578T, combination with SR16388
Text: as §1, §2

K562 = settings: Leukemia K562, combination with SR16388
Text: as §1, §2

KM12 = settings: Colon Cancer KM12, combination with SR16388
Text: as §1, §2

LOXIMVI = settings: Melanoma LOXIMVI, combination with SR16388
Text: as §1, §2

MALME = settings: Melanoma MALME, combination with SR16388
Text: as §1, §2

MCF7 = settings: Breast Cancer MCF7, combination with SR16388
Text: as §1, §2

MDAMB231 = settings: Breast Cancer MDAMB231, combination with SR16388
Text: as §1, §2

MDAMB435 = settings: Melanoma MDAMB435, combination with SR16388
Text: as §1, §2

MDAMB468 = settings: Breast Cancer MDAMB468, combination with SR16388
Text: as §1, §2

NCIH23 = settings: NSCLC NCIH23, combination with SR16388
Text: as §1, §2

NCIH322M = settings: NSCLC NCIH322M, combination with SR16388
Text: as §1, §2

NCIH460 = settings: NSCLC NCIH460, combination with SR16388
Text: as §1, §2

OVCAR3 = settings: Ovarian Cancer OVCAR3, combination with SR16388
Text: as §1, §2

OVCAR5 = settings: Ovarian Cancer OVCAR5, combination with SR16388
Text: as §1, §2

PCS = settings: Prostate Cancer PCS, combination with SR16388
Text: as §1, §2

SF295 = settings: CNS Cancer SF295, combination with SR16388
Text: as §1, §2

SKMEL28 = settings: Melanoma SKMEL28, combination with SR16388
Text: as §1, §2

SKMEL5 = settings: Melanoma SKMEL5, combination with SR16388
Text: as §1, §2

SKOV3 = settings: Ovarian Cancer SKOV3, combination with SR16388
Text: as §1, §2

SN12C = settings: Renal Cancer SN12C, combination with SR16388
Text: as §1, §2

SNB19 = settings: CNS Cancer SNB19, combination with SR16388
Text: as §1, §2

SR = settings: Leukemia SR, combination with SR16388
Text: as §1, §2

SW620 = settings: Colon Cancer SW620, combination with SR16388
Text: as §1, §2

T47D = settings: Breast Cancer T47D, combination with SR16388
Text: as §1, §2

TK10 = settings: Renal Cancer TK10, combination with SR16388
Text: as §1, §2

U251 = settings: CNS Cancer U251, combination with SR16388
Text: as §1, §2

UACC257 = settings: Melanoma UACC257, combination with SR16388
Text: as §1, §2

UACC62 = settings: Melanoma UACC62, combination with SR16388
Text: as §1, §2

Structure (SMILES)	% Hit rate 7860 [%]	% Hit rate (ACHN) [%]	% Hit rate (CAKI1) [%]	% Hit rate (CCRFCEM) [%]	% Hit rate (COLO205) [%]	% Hit rate (DU145) [%]	% Hit rate (HCT116) [%]	% Hit rate (HCT15) [%]	% Hit rate (HL60) [%]	% Hit rate (HOP62) [%]	% Hit rate (HOP92) [%]	% Hit rate (HS578T) [%]	% Hit rate (K562) [%]	% Hit rate (KM12) [%]	% Hit rate (LOXIMVI) [%]	% Hit rate (MALME) [%]	% Hit rate (MCF7) [%]	% Hit rate (MDAMB231) [%]	% Hit rate (MDAMB435) [%]	% Hit rate (MDAMB468) [%]	further results
CC[C@]1(O)C[C@@H]2CN(CCc3c([nH]c4ccccc34)[C@@](C(=O)OC)(c3cc4c(cc3OC)N(C)[C@H]3[C@@](O)(C(=O)OC)[C@H](OC(C)=O)[C@]5(CC)C=CCN6CC[C@]43[C@@H]65)C2)C1 [Vinblastine]	10	3	12	3	12	0	6	10	16	0	6	8	3	1	1	0	17	1	4	3	% Hit rate (NCIH23): 4%; % Hit rate (NCIH322M): 3%; % Hit rate (NCIH460): 16%; % Hit rate (OVCAR3): 4%; % Hit rate (OVCAR5): 0%; % Hit rate (PCS): 1%; % Hit rate (SF295): 0%; % Hit rate (SKMEL28): 8%; % Hit rate (SKMEL5): 5%; % Hit rate (SKOV3): 8%; % Hit rate (SN12C): 1%; % Hit rate (SNB19): 12%; % Hit rate (SR): 0%; % Hit rate (SW620): 8%; % Hit rate (T47D): 9%; % Hit rate (TK10): 4%; % Hit rate (U251): 0%; % Hit rate (UACC257): 6%; % Hit rate (UACC62): 10%
CC(=O)O[C@@]12CO[C@@H]1C[C@H](O)[C@@]1(C)C(=O)[C@H](O)C3=C(C)[C@@H](OC(=O)[C@H](O)[C@@H](NC(=O)OC(C)(C)C)c4ccccc4)C[C@@](O)([C@@H](OC(=O)c4ccccc4)[C@H]21)C3(C)C [Docetaxel]	10	4	16	12	35	1	18	12	21	1	4	22	0	6	8	6	19	10	14	6	% Hit rate (NCIH23): 5%; % Hit rate (NCIH322M): 14%; % Hit rate (NCIH460): 31%; % Hit rate (OVCAR3): 8%; % Hit rate (OVCAR5): 1%; % Hit rate (PCS): 3%; % Hit rate (SF295): 8%; % Hit rate (SKMEL28): 31%; % Hit rate (SKMEL5): 10%; % Hit rate (SKOV3): 12%; % Hit rate (SN12C): 8%; % Hit rate (SNB19): 18%; % Hit rate (SR): 0%; % Hit rate (SW620): 8%; % Hit rate (T47D): 19%; % Hit rate (TK10): 10%; % Hit rate (U251): 12%; % Hit rate (UACC257): 18%; % Hit rate (UACC62): 16%
